Reference: ChEMBL document CHEMBL1136454, “Synthesis and biological activity of N-Acylated ornithine analogues of daptomycin” (Bioorg Med Chem Lett, 2003)
≈ marks a conversion by molar mass, not a printed value.

Tests used:
[1] = In vivo total clearance was determined in murine septicemia at dose of 50 mg/kg; assay type: ADME, organism-based; design: dose 50 mg/kg; details: mouse, read-out: CLtotal (converted)
[2] = In vivo Cmax in mice at dose of 50 mg/kg; assay type: ADME, organism-based; design: dose 50 mg/kg; details: mouse
[3] = In vivo Tmax was determined in murine septicemia at dose of 50 mg/kg; assay type: ADME, organism-based; design: dose 50 mg/kg; details: mouse
[4] = In vivo half life period was determined in murine septicemia at dose of 50 mg/kg; assay type: ADME, organism-based; design: dose 50 mg/kg; details: mouse
[5] = In vivo volume distribution (Vd) was determined in murine septicemia at dose of 50 mg/kg; assay type: ADME, organism-based; design: dose 50 mg/kg; details: mouse
[6] = In vivo area under curve (AUC) was determined in murine septicemia at dose of 50 mg/kg; assay type: ADME, organism-based; design: dose 50 mg/kg; details: mouse
[7] = In vivo Tmax was determined in murine septicemia at dose of 100 mg/kg; assay type: ADME, organism-based; design: dose 100 mg/kg; details: mouse
[8] = In vivo area under curve (AUC) was determined in murine septicemia at dose of 100 mg/kg; assay type: ADME, organism-based; design: dose 100 mg/kg; details: mouse
[9] = In vivo Cmax in mice at dose of 100 mg/kg; assay type: ADME, organism-based; design: dose 100 mg/kg; details: mouse
[10] = In vivo total clearance was determined in murine septicemia at dose of 100 mg/kg; assay type: ADME, organism-based; design: dose 100 mg/kg; details: mouse, read-out: CLtotal (converted)
[11] = In vivo volume distribution (Vd) was determined in murine septicemia at dose of 100 mg/kg; assay type: ADME, organism-based; design: dose 100 mg/kg; details: mouse
[12] = test system: Mus musculus; test: Antibacterial activity was determined by protection from death of mice infected by methicillin resistant Staphylococcus aureus (MRSA) upon sc administration of compound after 4 hr of post infection; assay type: functional; details: read-out: PD50
[13] = test system: Enterococcus faecium; test: Antibacterial activity against Enterococcus faecium ATCC 6569; assay type: functional
[14] = test system: Staphylococcus aureus; test: Antibacterial activity against methicillin resistant Staphylococcus aureus ATCC 43300 (MRSA); assay type: functional
[15] = test system: Enterococcus faecalis; test: Antibacterial activity against Enterococcus faecalis ATCC 49452; assay type: functional
[16] = test system: Staphylococcus aureus; test: Antibacterial activity against methicillin susceptible Staphylococcus aureus ATCC 29213 (MSSA ); assay type: functional

Row | SMILES | clearance [1] [mL/min/kg] | Cmax [2] [µg/mL] | Tmax [3] [h] | half-life [4] [h] | Vd [5] [L/kg] | AUC [6] [µg·h/mL] | ED50 [12] [mg/kg] | MIC [13] [µg/mL] | MIC [14] [µg/mL] | MIC [15] [µg/mL] | MIC [16] [µg/mL] | further results
1 | CCCCCCCCCC(=O)N[C@@H](Cc1c[nH]c2ccccc12)C(=O)N[C@H](CC(N)=O)C(=O)N[C@@H](CC(=O)O)C(=O)N[C@@H]1C(=O)NCC(=O)N[C@@H](CCCNC(=O)c2c(N)ccc3ccccc23)C(=O)N[C@@H](CC(=O)O)C(=O)N[C@H](C)C(=O)N[C@@H](CC(=O)O)C(=O)NCC(=O)N[C@H](CO)C(=O)N[C@@H]([C@H](C)CC(=O)O)C(=O)N[C@@H](CC(=O)c2ccccc2N)C(=O)O[C@@H]1C [listing 1 of 2 here] | 0.3 | 230 | 4 | 5.6 | 0.143 | 2820 |  |  |  |  |  | 
2 | CCCCCCCCCC(=O)N[C@@H](Cc1c[nH]c2ccccc12)C(=O)N[C@H](CC(N)=O)C(=O)N[C@@H](CC(=O)O)C(=O)N[C@@H]1C(=O)NCC(=O)N[C@@H](CCCNC(=O)c2ccccc2N)C(=O)N[C@@H](CC(=O)O)C(=O)N[C@H](C)C(=O)N[C@@H](CC(=O)O)C(=O)NCC(=O)N[C@H](CO)C(=O)N[C@@H]([C@H](C)CC(=O)O)C(=O)N[C@@H](CC(=O)c2ccccc2N)C(=O)O[C@@H]1C [listing 1 of 2 here] |  |  |  | 2.4 |  |  |  |  |  |  |  | Tmax [7]: 0.5 h; AUC [8]: 1500 µg·h/mL; Cmax [9]: 464 µg/mL; clearance [10]: 1.1 mL/min/kg; Vd [11]: 0.23 L/kg
3 | CCCCCCCCCC(=O)N[C@@H](Cc1c[nH]c2ccccc12)C(=O)N[C@H](CC(N)=O)C(=O)N[C@@H](CC(=O)O)C(=O)N[C@@H]1C(=O)NCC(=O)N[C@@H](CCCN)C(=O)N[C@@H](CC(=O)O)C(=O)N[C@H](C)C(=O)N[C@@H](CC(=O)O)C(=O)NCC(=O)N[C@H](CO)C(=O)N[C@@H]([C@H](C)CC(=O)O)C(=O)N[C@@H](CC(=O)c2ccccc2N)C(=O)O[C@@H]1C | 1.7 | 214 | 0.5 | 1.7 | 0.251 | 489 | 0.22 | 1.56 (≈ 0.963 µM) | 0.39 (≈ 0.241 µM) | 1.56 (≈ 0.963 µM) | 0.78 (≈ 0.481 µM) | 
4 | CCCCCCCCCC(=O)N[C@@H](Cc1c[nH]c2ccccc12)C(=O)N[C@H](CC(N)=O)C(=O)N[C@@H](CC(=O)O)C(=O)N[C@@H]1C(=O)NCC(=O)N[C@@H](CCCNC(=O)[C@@H](N)CCCCN)C(=O)N[C@@H](CC(=O)O)C(=O)N[C@H](C)C(=O)N[C@@H](CC(=O)O)C(=O)NCC(=O)N[C@H](CO)C(=O)N[C@@H]([C@H](C)CC(=O)O)C(=O)N[C@@H](CC(=O)c2ccccc2N)C(=O)O[C@@H]1C [listing 1 of 2 here] |  |  |  |  |  |  | 1.1 |  | 0.78 (≈ 0.446 µM) | 6.25 (≈ 3.57 µM) | 1.56 (≈ 0.892 µM) | 
5 | CCCCCCCCCC(=O)N[C@@H](Cc1c[nH]c2ccccc12)C(=O)N[C@H](CC(N)=O)C(=O)N[C@@H](CC(=O)O)C(=O)N[C@@H]1C(=O)NCC(=O)N[C@@H](CCCNC(=O)C(N)CCc2c[nH]c3ccccc23)C(=O)N[C@@H](CC(=O)O)C(=O)N[C@H](C)C(=O)N[C@@H](CC(=O)O)C(=O)NCC(=O)N[C@H](CO)C(=O)N[C@@H]([C@H](C)CC(=O)O)C(=O)N[C@@H](CC(=O)c2ccccc2N)C(=O)O[C@@H]1C (stereo partly specified) [listing 1 of 2 here] |  |  |  |  |  |  | 0.15 | 1.56 (≈ 0.857 µM) | 0.78 (≈ 0.428 µM) | 3.1 (≈ 1.7 µM) | 0.78 (≈ 0.428 µM) | 
6 | CCCCCCCCCC(=O)N[C@@H](Cc1c[nH]c2ccccc12)C(=O)N[C@H](CC(N)=O)C(=O)N[C@@H](CC(=O)O)C(=O)N[C@@H]1C(=O)NCC(=O)N[C@@H](CCCNC(=O)C2Cc3c([nH]c4ccccc34)CN2)C(=O)N[C@@H](CC(=O)O)C(=O)N[C@H](C)C(=O)N[C@@H](CC(=O)O)C(=O)NCC(=O)N[C@H](CO)C(=O)N[C@@H]([C@H](C)CC(=O)O)C(=O)N[C@@H](CC(=O)c2ccccc2N)C(=O)O[C@@H]1C (stereo partly specified) [listing 1 of 2 here] |  |  |  |  |  |  | 1.75 | 3.1 (≈ 1.7 µM) | 0.78 (≈ 0.429 µM) | 12.5 (≈ 6.87 µM) | 0.78 (≈ 0.429 µM) | 
7 | CCCCCCCCCC(=O)N[C@@H](Cc1c[nH]c2ccccc12)C(=O)N[C@H](CC(N)=O)C(=O)N[C@@H](CC(=O)O)C(=O)N[C@@H]1C(=O)NCC(=O)N[C@@H](CCCNC(=O)[C@@H](N)CCCCN)C(=O)N[C@@H](CC(=O)O)C(=O)N[C@H](C)C(=O)N[C@@H](CC(=O)O)C(=O)NCC(=O)N[C@H](CO)C(=O)N[C@@H]([C@H](C)CC(=O)O)C(=O)N[C@@H](CC(=O)c2ccccc2N)C(=O)O[C@@H]1C [listing 2 of 2 here] | 1.42 | 297 | 0.5 | 1.2 | 0.147 | 589 |  |  |  |  |  | 
8 | CCCCCCCCCC(=O)N[C@@H](Cc1c[nH]c2ccccc12)C(=O)N[C@H](CC(N)=O)C(=O)N[C@@H](CC(=O)O)C(=O)N[C@@H]1C(=O)NCC(=O)N[C@@H](CCCNC(=N)N)C(=O)N[C@@H](CC(=O)O)C(=O)N[C@H](C)C(=O)N[C@@H](CC(=O)O)C(=O)NCC(=O)N[C@H](CO)C(=O)N[C@@H]([C@H](C)CC(=O)O)C(=O)N[C@@H](CC(=O)c2ccccc2N)C(=O)O[C@@H]1C [listing 1 of 2 here] | 1.08 | 254 | 0.5 | 2.1 | 0.198 | 766 |  |  |  |  |  | 
9 | CCCCCCCCCC(=O)N[C@@H](Cc1c[nH]c2ccccc12)C(=O)N[C@H](CC(N)=O)C(=O)N[C@@H](CC(=O)O)C(=O)N[C@@H]1C(=O)NCC(=O)N[C@@H](CCCNC(=O)C(N)CCc2c[nH]c3ccccc23)C(=O)N[C@@H](CC(=O)O)C(=O)N[C@H](C)C(=O)N[C@@H](CC(=O)O)C(=O)NCC(=O)N[C@H](CO)C(=O)N[C@@H]([C@H](C)CC(=O)O)C(=O)N[C@@H](CC(=O)c2ccccc2N)C(=O)O[C@@H]1C (stereo partly specified) [listing 2 of 2 here] | 0.883 | 258 | 1 | 2.8 | 0.216 | 936 |  |  |  |  |  | 
10 | CCCCCCCCCC(=O)N[C@@H](Cc1c[nH]c2ccccc12)C(=O)N[C@H](CC(N)=O)C(=O)N[C@@H](CC(=O)O)C(=O)N[C@@H]1C(=O)NCC(=O)N[C@@H](CCCNC(=O)c2ccccc2N)C(=O)N[C@@H](CC(=O)O)C(=O)N[C@H](C)C(=O)N[C@@H](CC(=O)O)C(=O)NCC(=O)N[C@H](CO)C(=O)N[C@@H]([C@H](C)CC(=O)O)C(=O)N[C@@H](CC(=O)c2ccccc2N)C(=O)O[C@@H]1C [listing 2 of 2 here] |  |  |  |  |  |  | 1.1 | 6.25 (≈ 3.59 µM) | 1.56 (≈ 0.897 µM) | 12.5 (≈ 7.18 µM) | 0.78 (≈ 0.448 µM) | 
11 | CCCCCCCCCC(=O)N[C@@H](Cc1c[nH]c2ccccc12)C(=O)N[C@@H](CC(N)=O)C(=O)N[C@@H](CC(=O)O)C(=O)N[C@@H]1C(=O)NCC(=O)N[C@@H](CCCNC(=O)C(N)Cc2c[nH]c3ccc(OC)cc23)C(=O)N[C@@H](CC(=O)O)C(=O)N[C@H](C)C(=O)N[C@@H](CC(=O)O)C(=O)NCC(=O)N[C@H](CO)C(=O)N[C@@H]([C@H](C)CC(=O)O)C(=O)N[C@@H](CC(=O)c2ccccc2N)C(=O)O[C@@H]1C (stereo partly specified) |  |  |  |  |  |  |  | 12.5 (≈ 6.8 µM) | 1.56 (≈ 0.849 µM) | 25 (≈ 13.6 µM) | 1.56 (≈ 0.849 µM) | 
12 | CCCCCCCCCC(=O)N[C@@H](Cc1c[nH]c2ccccc12)C(=O)N[C@H](CC(N)=O)C(=O)N[C@@H](CC(=O)O)C(=O)N[C@@H]1C(=O)NCC(=O)N[C@@H](CCCNC(=O)c2c(N)ccc3ccccc23)C(=O)N[C@@H](CC(=O)O)C(=O)N[C@H](C)C(=O)N[C@@H](CC(=O)O)C(=O)NCC(=O)N[C@H](CO)C(=O)N[C@@H]([C@H](C)CC(=O)O)C(=O)N[C@@H](CC(=O)c2ccccc2N)C(=O)O[C@@H]1C [listing 2 of 2 here] |  |  |  |  |  |  | 2.1 | 6.25 (≈ 3.49 µM) | 0.78 (≈ 0.436 µM) | 6.25 (≈ 3.49 µM) | 0.78 (≈ 0.436 µM) | 
13 | CCCCCCCCCC(=O)N[C@@H](Cc1c[nH]c2ccccc12)C(=O)N[C@H](CC(N)=O)C(=O)N[C@@H](CC(=O)O)C(=O)N[C@@H]1C(=O)NCC(=O)N[C@@H](CCCNC(=O)c2cc(C(=O)O)ccc2N)C(=O)N[C@@H](CC(=O)O)C(=O)N[C@H](C)C(=O)N[C@@H](CC(=O)O)C(=O)NCC(=O)N[C@H](CO)C(=O)N[C@@H]([C@H](C)CC(=O)O)C(=O)N[C@@H](CC(=O)c2ccccc2N)C(=O)O[C@@H]1C |  |  |  |  |  |  |  | 10 (≈ 5.61 µM) | 3.1 (≈ 1.74 µM) | 12.5 (≈ 7.01 µM) | 1.25 (≈ 0.701 µM) | 
14 | CCCCCCCCCC(=O)N[C@@H](Cc1c[nH]c2ccccc12)C(=O)N[C@H](CC(N)=O)C(=O)N[C@@H](CC(=O)O)C(=O)N[C@@H]1C(=O)NCC(=O)N[C@@H](CCCNC(=O)C2Cc3c([nH]c4ccccc34)CN2)C(=O)N[C@@H](CC(=O)O)C(=O)N[C@H](C)C(=O)N[C@@H](CC(=O)O)C(=O)NCC(=O)N[C@H](CO)C(=O)N[C@@H]([C@H](C)CC(=O)O)C(=O)N[C@@H](CC(=O)c2ccccc2N)C(=O)O[C@@H]1C (stereo partly specified) [listing 2 of 2 here] |  | 418 | 6 | > 6 |  |  |  |  |  |  |  | 
15 | CCCCCCCCCC(=O)N[C@@H](Cc1c[nH]c2ccccc12)C(=O)N[C@H](CC(N)=O)C(=O)N[C@@H](CC(=O)O)C(=O)N[C@@H]1C(=O)NCC(=O)N[C@@H](CCCNC(=N)N)C(=O)N[C@@H](CC(=O)O)C(=O)N[C@H](C)C(=O)N[C@@H](CC(=O)O)C(=O)NCC(=O)N[C@H](CO)C(=O)N[C@@H]([C@H](C)CC(=O)O)C(=O)N[C@@H](CC(=O)c2ccccc2N)C(=O)O[C@@H]1C [listing 2 of 2 here] |  |  |  |  |  |  | 0.17 | 6.25 (≈ 3.76 µM) | 0.78 (≈ 0.469 µM) | 12.5 (≈ 7.52 µM) | 0.78 (≈ 0.469 µM) | 
